# Laboratory results from patent US11773369B2, “Generation of human spinal cord neural stem cells” (THE REGENTS OF THE UNIVERSITY OF CALIFORNIA, priority 2018, dated 2023).
# Tested on: H9-derived spinal cord NSCs
# Test: Long-term maintenance and expansion of spinal cord NSCs in neural maintenance media
# Assay type: cell-based, human
# Conditions: for effect of omission from maintenance media on cultures: omission of the component, data not shown
SMILES,effect of omission from maintenance media on cultures,"effect on dorso-ventral polarity of induced cells (NKX6.1, PAX6) (18 days after neural induction)"
Cc1c[nH]c(-c2cnc(NCCNc3ccc(C#N)cn3)nc2-c2ccc(Cl)cc2Cl)n1 [CHIR],failure to sustain cultures over time,
CNC1CCC(N(Cc2cccc(-c3ccncc3)c2)C(=O)c2sc3c(F)ccc(F)c3c2Cl)CC1 (stereo not drawn) [Hh-Ag1.5],failure to sustain cultures over time,disrupted dorso-ventral polarity
